The text below walks through data of ChEMBL document CHEMBL3751749, “Identification of new hit scaffolds by [sequence]-guided virtual screening” (Medchemcomm, 2015).

In experiment [1] the target is T1, Cyclin-dependent kinase 2 (Homo sapiens, UniProt P24941). In words: Binding affinity to N-terminal His-tagged human CDK2 expressed in Escherichia coli BL21-AI by STD-NMR analysis.
Experiment [2] concerns the target T1, Cyclin-dependent kinase 2. In words: Binding affinity to human CDK2 by isothermal titration calorimetric analysis. In general terms: In ITC the heat of successive injections is recorded.
The target in experiment [3] is ALK tyrosine kinase receptor (Homo sapiens) (UniProt Q9UM73). In words: Inhibition of human ALK assessed as enzyme activity using pEY as substrate at 5 uM incubated for 120 mins in presence of 33-P ATP by kinase phosphorylation assay. Set-up: scale not given: the % may be the effect or the level left.
Chain of ALK tyrosine kinase receptor (Homo sapiens) (Q9UM73 19-1620 limits assumed): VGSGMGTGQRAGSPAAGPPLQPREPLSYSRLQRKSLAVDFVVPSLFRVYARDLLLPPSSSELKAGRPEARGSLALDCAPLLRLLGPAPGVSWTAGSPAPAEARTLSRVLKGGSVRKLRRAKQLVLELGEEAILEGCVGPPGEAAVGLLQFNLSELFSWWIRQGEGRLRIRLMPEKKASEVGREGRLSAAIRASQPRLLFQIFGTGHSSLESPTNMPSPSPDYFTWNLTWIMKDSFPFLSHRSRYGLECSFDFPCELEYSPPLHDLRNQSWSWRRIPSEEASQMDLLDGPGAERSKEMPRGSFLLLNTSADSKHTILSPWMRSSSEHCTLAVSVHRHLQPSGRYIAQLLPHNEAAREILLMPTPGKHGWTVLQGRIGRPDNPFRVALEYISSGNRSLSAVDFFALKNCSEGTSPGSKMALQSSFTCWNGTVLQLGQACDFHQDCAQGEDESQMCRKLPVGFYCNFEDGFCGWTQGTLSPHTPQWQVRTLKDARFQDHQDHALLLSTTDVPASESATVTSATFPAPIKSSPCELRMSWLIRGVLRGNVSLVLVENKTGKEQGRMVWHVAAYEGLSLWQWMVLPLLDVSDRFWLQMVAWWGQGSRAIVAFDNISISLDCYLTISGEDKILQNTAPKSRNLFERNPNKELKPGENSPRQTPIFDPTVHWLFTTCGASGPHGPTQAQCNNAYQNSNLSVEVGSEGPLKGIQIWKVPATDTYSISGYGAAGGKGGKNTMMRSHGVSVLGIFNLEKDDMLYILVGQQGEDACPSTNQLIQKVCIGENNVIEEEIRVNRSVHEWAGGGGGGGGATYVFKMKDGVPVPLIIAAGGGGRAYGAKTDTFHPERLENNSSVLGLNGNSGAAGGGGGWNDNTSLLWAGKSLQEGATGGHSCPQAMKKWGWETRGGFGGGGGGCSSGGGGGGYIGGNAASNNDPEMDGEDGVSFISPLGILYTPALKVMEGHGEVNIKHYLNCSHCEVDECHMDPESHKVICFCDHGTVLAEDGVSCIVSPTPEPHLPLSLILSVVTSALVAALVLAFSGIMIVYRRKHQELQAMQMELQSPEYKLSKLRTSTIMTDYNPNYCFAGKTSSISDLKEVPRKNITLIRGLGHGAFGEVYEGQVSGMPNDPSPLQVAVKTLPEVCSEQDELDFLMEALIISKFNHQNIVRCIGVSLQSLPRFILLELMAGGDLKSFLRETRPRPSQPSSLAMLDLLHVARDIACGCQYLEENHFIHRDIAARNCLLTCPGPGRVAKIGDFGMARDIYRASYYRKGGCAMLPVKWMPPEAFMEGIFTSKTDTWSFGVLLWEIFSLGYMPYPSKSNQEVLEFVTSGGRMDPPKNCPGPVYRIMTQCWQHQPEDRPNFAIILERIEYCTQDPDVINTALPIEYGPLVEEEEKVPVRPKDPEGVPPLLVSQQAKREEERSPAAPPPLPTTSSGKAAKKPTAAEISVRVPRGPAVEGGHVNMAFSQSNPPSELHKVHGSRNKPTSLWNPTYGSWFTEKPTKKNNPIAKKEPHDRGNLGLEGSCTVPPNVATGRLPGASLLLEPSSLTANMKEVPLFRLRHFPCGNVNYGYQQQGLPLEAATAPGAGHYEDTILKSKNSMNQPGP
Experiment [4] deals with T2, CDK2/Cyclin A2 (Homo sapiens) (UniProt P24941+P20248). In words: Inhibition of recombinant full-length human Cdk2/cyclin A assessed as enzyme activity using histone H1 as substrate at 5 uM incubated for 120 mins in presence of 33-P ATP by kinase phosphorylation assay. It counts as protein-complex assay. Also on record: scale not given: the % may be the effect or the level left.

The target of experiment [5] is T3, Cyclin-dependent kinase 2/cyclin E1 (Homo sapiens) (UniProt P24864+P24941). In words: Inhibition of recombinant full-length human Cdk2/cyclin E assessed as enzyme activity using histone H1 as substrate at 5 uM incubated for 120 mins in presence of 33-P ATP by kinase phosphorylation assay. Set-up: scale not given: the % may be the effect or the level left. It counts as protein-complex assay.

For experiment [6], the species on record is Homo sapiens. In words: Inhibition of human PKA assessed as enzyme activity using PKA peptide as substrate at 5 uM incubated for 120 mins in presence of 33-P ATP by kinase phosphorylation assay. Set-up: scale not given: the % may be the effect or the level left.
A further experiment addresses CDK2/Cyclin A2 (Homo sapiens, UniProt P24941). In words: Inhibition of recombinant full-length human Cdk2/cyclin A using histone H1 as substrate incubated for 120 mins in presence of 33-P ATP by kinase phosphorylation assay. It counts as protein-complex assay.
Experiment [7] deals with T2, CDK2/Cyclin A2 (Homo sapiens). In words: Inhibition of recombinant full-length human Cdk2/cyclin A assessed as enzyme activity using histone H1 as substrate at 100 uM incubated for 120 mins in presence of 33-P ATP by kinase phosphorylation assay. In kind it is protein-complex assay. Also on record: scale not given: the % may be the effect or the level left.
The target of experiment [8] is T3, Cyclin-dependent kinase 2/cyclin E1 (Homo sapiens). As to the kind of experiment: Inhibition of recombinant full-length human Cdk2/cyclin E assessed as enzyme activity using histone H1 as substrate at 100 uM incubated for 120 mins in presence of 33-P ATP by kinase phosphorylation assay. In kind it is protein-complex assay. Set-up: scale not given: the % may be the effect or the level left.

The species named for experiment [9] is Homo sapiens. In words: Inhibition of human PKA assessed as enzyme activity using PKA peptide as substrate at 100 uM incubated for 120 mins in presence of 33-P ATP by kinase phosphorylation assay. Set-up: scale not given: the % may be the effect or the level left.

Calls of active or inactive are those of the source. No cut-off for these calls is given here.

The Kd is the equilibrium constant for the complex coming apart. Usually IC50 stands for the concentration needed to halve the response being measured.

Regarding `CC(C)=CCNc1ncnc2[nH]cnc12`, the result in [1] was Active.

With `O=S(=O)(c1cccc2cnccc12)N1CCCNCC1`, in experiment [1], the result was Active. Turning to `Nc1ncnc2c1ncn2[C@@H]1O[C@H](CO)[C@@H](O)[C@H]1O` [ADENOSINE], the affinity in [2], expressed as Kd, was 184 µM. With `Cc1ccc(Cn2cc(-n3c(-c4ccc(Cn5cccn5)cc4)n[nH]c3=S)cn2)cc1`, the result in experiment [1] was inactive. In experiment [2], `c1ccc(CNc2ncnc3nc[nH]c23)cc1` [6-BENZYLAMINOPURINE] had a dissociation constant (Kd) of 62 µM. With `c1ccc(CNc2ncnc3[nH]cnc23)cc1`, in experiment [1], the result was Active.

As for `Cc1ccc(Cn2cc(-n3c(-c4ccc(Cn5cc(Cl)cn5)cc4)n[nH]c3=S)cn2)cc1`, the outcome in [1] was inactive. `Cc1ccc(Cn2cc(-n3c(-c4ccc(Cn5nc(C)c(Cl)c5C)o4)n[nH]c3=S)cn2)cc1`: the result in [1] was inactive. Compound `CC(C)=CCNc1ncnc2nc[nH]c12` displayed an equilibrium dissociation constant (Kd) in experiment [2] of 35 µM. Turning to `Cc1nc2[nH]n(-c3ccccc3)c(=O)c2c2c1c(=O)oc1ccc(Br)cc12`, the Activity in experiment [3] came out at 87%; in experiment [4], 35%; in [5], 95%; in the experiment listed under Homo sapiens [6], 115%. In addition, the IC50 on CDK2/Cyclin A2 turned out to be 2.6 µM. For `N=C(N)NCCNS(=O)(=O)c1cccc2cnccc12`, the result in experiment [1] was Active. The affinity in [2], expressed as Kd, was 286 µM. As to `CNc1ncnc2ccc([N+](=O)[O-])cc12`, the outcome in experiment [1] was Active. The compound further returned a Kd in [2] of 208 µM. Turning to `Cc1ccc(Cn2nccc2-n2c(-c3cc(C)n(C)n3)n[nH]c2=S)cc1`, the Activity in experiment [7] worked out at 69%; in experiment [8], 96%; in the experiment filed under Homo sapiens [9], 99%. In addition, the IC50 on CDK2/Cyclin A2 worked out at 1000 µM. In experiment [1], the outcome was Active. Turning to `Cc1ccc(Cn2cc(-n3c(-c4ccc(Cn5nc(C)cc5C)o4)n[nH]c3=S)cn2)cc1`, in [1], the outcome was inactive.
